# Experimental data as given in ChEMBL document CHEMBL5584334, “Discovery of a Covalent Inhibitor of Pro-Caspase-1 Zymogen Blocking NLRP3 Inflammasome Activation and Pyroptosis” (J Med Chem, 2024).
# Active and inactive are the calls of the source. The rule behind the calls is not given here.
# What was measured:
# THP-1 [1] = test: Effect on pro caspase-5 expression in human THP-1 cells at 2 uM pretreated with pam3CSK4 for 3 hrs followed by compound addition for 30 mins prior to cytosolic LPS stimulation for 16 hrs by ELISA; format: functional, cell-based; details: time 16.5 hrs
# [2] = tested on: Caspase-1 (Homo sapiens), P29466 [C397A]; test: Binding affinity to Flag-tagged caspase-1 C397A mutant (unknown origin) expressed in HEK293T cells by pull-down assay; format: cell-based
# THP-1 [3] = test: Effect on pro-1L-1beta protein expression in LPS/ATP stimulated human THP-1 cells supernatant by Western blotting analysis; format: functional, cell-based
# HEK293T [4] = test: Inhibition of recombinant caspae-1 C244A mutant (unknown origin) to GSDMD (unknown origin) interaction expressed in HEK293T cells; format: cell-based; details: Homo sapiens
# [5] = Acute toxicity in Kunming mouse assessed as liver damage at 100 mg/kg, ip administered for 14 days; format: organism-based; details: in vivo, 336 h, time 14 day
# [6] = tested on: Caspase-1 (Homo sapiens), P29466 [C169A]; test: Binding affinity to recombinant caspase-1 C169A mutant (unknown origin) at 2 uM by SDS-PAGE analysis
# J774.A1 [7] = test: Inhibition of NF-kappaB signaling in LPS-stimulated mouse J774.A1 cells at 1 uM preincubated for 30 mins followed by LPS addition and measured after 2 hrs by Western blotting analysis; format: cell-based; details: time 2.5 hrs
# Caspase-1 (Mus musculus) [8] = biological target: T1, Caspase-1 (Mus musculus) (UniProt P29452); test: Irreversible binding affinity to caspase-1 in LPS-induced mouse J774.A1 cells assessed as reduction in IL-1beta level at 0.5 to 2 uM pretreated with LPS for 3 hrs followed by compound addition for 30 mins prior to compound washout then nigericin addition for 1 hr by ELISA; format: cell-based; details: dose 0.5-2 µM
# T1 sequence (whole entry): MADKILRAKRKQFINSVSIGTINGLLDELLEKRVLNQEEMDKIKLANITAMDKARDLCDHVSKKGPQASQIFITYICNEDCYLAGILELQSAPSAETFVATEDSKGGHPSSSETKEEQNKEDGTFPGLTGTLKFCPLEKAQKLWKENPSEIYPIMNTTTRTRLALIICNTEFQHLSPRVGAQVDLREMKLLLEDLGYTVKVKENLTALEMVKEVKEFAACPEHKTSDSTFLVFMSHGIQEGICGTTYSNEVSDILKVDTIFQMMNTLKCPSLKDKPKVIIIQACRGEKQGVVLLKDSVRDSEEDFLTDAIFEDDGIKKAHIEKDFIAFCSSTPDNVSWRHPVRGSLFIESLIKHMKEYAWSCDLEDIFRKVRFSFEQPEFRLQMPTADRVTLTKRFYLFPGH
# HEK293T [9] = test: Inhibition of recombinant caspae-1 C270A mutant (unknown origin) to GSDMD (unknown origin) interaction expressed in HEK293T cells; format: cell-based; details: Homo sapiens
# THP-1 [10] = test: Effect on cleaved caspase-4 expression in human THP-1 cells at 2 uM pretreated with pam3CSK4 for 3 hrs followed by compound addition for 30 mins prior to cytosolic LPS stimulation for 16 hrs by ELISA; format: functional, cell-based; details: time 16.5 hrs
# THP-1 [11] = test: Effect on pro-caspase 1 protein expression in LPS/nigericin stimulated human THP-1 cells supernatant at 0.5 to 2 uM by Western blotting analysis; format: functional, cell-based; details: dose 0.5-2 µM
# Caspase-1 (Mus musculus) [12] = biological target: T1, Caspase-1 (Mus musculus); test: Binding affinity to caspase-1 in LPS-induced mouse J774.A1 cells assessed as reduction in IL-1beta level at 0.5 uM preincubated with compound followed by nigericin addition; format: cell-based; details: time 3-24 hrs, TDE = time-dependent effect
# J774.A1 [13] = test: Binding affinity to pro-caspase 1 in mouse J774.A1 cells assessed as increase in protein stability incubated for 30 mins by CETSA; format: cell-based; details: dose 1-100 µM
# [14] = Acute toxicity in Kunming mouse assessed as kidney damage at 100 mg/kg, ip administered for 14 days; format: organism-based; details: in vivo, 336 h, time 14 day
# Caspase-1 (Homo sapiens) [15] = biological target: T2, Caspase-1 (Homo sapiens) (UniProt P29466); test: Inhibition of recombinant human caspase-1 expressed in Escherichia coli BL21 cells at 5 to 50 uM using […] as substrate incubated for 30 mins; details: dose 5-50 µM
# T2 sequence (whole entry): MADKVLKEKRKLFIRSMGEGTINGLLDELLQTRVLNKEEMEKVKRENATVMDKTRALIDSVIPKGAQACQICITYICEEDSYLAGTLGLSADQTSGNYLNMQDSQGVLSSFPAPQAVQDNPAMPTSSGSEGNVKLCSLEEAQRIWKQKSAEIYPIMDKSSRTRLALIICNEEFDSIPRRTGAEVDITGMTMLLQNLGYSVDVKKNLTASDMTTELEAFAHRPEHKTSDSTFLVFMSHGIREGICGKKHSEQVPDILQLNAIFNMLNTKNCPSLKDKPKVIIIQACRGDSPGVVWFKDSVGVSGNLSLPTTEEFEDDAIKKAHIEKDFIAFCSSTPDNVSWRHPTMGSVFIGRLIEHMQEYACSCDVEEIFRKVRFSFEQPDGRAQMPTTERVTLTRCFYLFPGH
# J774.A1 [16] = test: Downregulation of inhibitor kappa B-alpha phosphorylation in mouse J774.A1 cells at 0.5 to 2 uM preincubated for 30 mins followed by LPS addition and measured after 2 hrs by Western blotting analysis; format: functional, cell-based; details: dose 0.5-2 µM, time 2.5 hrs
# J774.A1 [17] = test: Inhibition of NLRP3 colocalization in LPS/nigericin stimulated mouse J774.A1 cells by fluorescent staining based assay; format: functional, cell-based
# J774.A1 [18] = test: Inhibition of ASC colocalization in LPS/nigericin stimulated mouse J774.A1 cells; format: functional, cell-based
# Caspase-1 (Homo sapiens) [19] = biological target: T2, Caspase-1 (Homo sapiens); test: Inhibition of recombinant human caspase-1 expressed in Escherichia coli BL21 cells assessed as remaining activity at 10 uM using […] as substrate incubated for 30 mins relative to control
# [20] = tested on: Caspase-1 (Homo sapiens), P29466 [C270A]; test: Inhibition of recombinant caspase-1 C270A mutant (unknown origin) at 100 uM relative to control
# HEK293T [21] = test: Inhibition of recombinant caspae-1 C169A mutant (unknown origin) to GSDMD (unknown origin) interaction expressed in HEK293T cells; format: cell-based; details: Homo sapiens
# HEK293T [22] = test: Inhibition of recombinant caspae-1 C397A mutant (unknown origin) to GSDMD (unknown origin) interaction expressed in HEK293T cells; format: cell-based; details: Homo sapiens
# [23] = Tmax in rat at 10 mg/kg, iv; format: ADME, organism-based; details: in vivo
# J774.A1 [24] = test: Inhibition of pyroptosis in mouse J774.A1 cells assessed as reduction in LDH release at 0.5 to 2 uM pretreated with LPS for 3 hrs followed by compound addition in presence of nigericin; format: functional, cell-based; details: dose 0.5-2 µM
# [25] = biological target: NACHT, LRR and PYD domains-containing protein 3 (Mus musculus) (UniProt Q8R4B8); test: Inhibition of NLRP3 inflammasome activation in LPS/MSU stimulated mouse J774.A1 cells assessed as reduction in IL-18 production incubated for 4 hrs by ELISA; format: cell-based
# [26] = biological target: NACHT, LRR and PYD domains-containing protein 3 (Mus musculus) (UniProt Q8R4B8); test: Inhibition of NLRP3 inflammasome activation in LPS primed Casp1 knockout mouse BMDM cells transfected with caspase-1 C285A/C397A double mutant assessed as reduction in IL-1beta release at 2 uM preincubated for 30 mins followed by nigericin stimulation; format: cell-based
# Sequence of NACHT, LRR and PYD domains-containing protein 3 (Mus musculus) (Q8R4B8 whole entry, the tested form may be a part): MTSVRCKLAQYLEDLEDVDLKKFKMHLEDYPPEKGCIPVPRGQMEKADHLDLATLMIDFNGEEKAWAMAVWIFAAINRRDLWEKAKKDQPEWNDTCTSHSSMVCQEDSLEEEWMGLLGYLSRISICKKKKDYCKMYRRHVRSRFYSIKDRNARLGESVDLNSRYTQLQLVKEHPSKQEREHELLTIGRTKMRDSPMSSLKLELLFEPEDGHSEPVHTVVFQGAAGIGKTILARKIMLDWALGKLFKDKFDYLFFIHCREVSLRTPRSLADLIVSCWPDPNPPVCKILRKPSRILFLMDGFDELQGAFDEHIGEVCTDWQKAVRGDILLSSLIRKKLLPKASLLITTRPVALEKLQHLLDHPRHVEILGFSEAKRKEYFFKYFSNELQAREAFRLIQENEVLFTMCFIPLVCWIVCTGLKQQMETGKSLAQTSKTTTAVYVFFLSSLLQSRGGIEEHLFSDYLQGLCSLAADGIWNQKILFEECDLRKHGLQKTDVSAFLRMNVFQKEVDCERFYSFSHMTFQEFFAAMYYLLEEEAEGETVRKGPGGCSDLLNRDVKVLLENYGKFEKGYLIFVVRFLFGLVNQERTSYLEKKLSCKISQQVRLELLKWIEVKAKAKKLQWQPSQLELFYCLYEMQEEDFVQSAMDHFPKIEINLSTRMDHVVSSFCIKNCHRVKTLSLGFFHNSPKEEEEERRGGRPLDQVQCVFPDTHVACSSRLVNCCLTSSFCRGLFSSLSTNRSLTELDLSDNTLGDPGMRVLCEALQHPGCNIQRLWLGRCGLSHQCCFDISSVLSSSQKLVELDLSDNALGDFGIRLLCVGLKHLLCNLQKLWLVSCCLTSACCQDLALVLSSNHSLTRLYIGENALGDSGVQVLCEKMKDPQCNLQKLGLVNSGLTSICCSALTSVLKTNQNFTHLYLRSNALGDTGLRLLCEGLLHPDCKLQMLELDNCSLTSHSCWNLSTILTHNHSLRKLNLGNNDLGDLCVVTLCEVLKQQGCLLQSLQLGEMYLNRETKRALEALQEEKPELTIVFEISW
# Sequence of Caspase-1 (Homo sapiens), P29466 [C169A] (P29466 whole entry C169A): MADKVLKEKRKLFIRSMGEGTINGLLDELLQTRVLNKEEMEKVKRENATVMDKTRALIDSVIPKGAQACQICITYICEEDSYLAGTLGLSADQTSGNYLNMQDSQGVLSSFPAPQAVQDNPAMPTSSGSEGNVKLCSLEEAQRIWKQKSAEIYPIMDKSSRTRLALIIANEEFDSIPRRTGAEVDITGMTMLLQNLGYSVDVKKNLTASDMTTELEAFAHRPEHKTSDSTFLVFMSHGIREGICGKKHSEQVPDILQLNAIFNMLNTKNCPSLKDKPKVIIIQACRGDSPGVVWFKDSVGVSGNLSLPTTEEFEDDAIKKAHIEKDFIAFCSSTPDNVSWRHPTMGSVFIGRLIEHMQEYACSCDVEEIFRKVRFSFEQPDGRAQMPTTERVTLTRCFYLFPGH
# Sequence of Caspase-1 (Homo sapiens), P29466 [C397A] (P29466 whole entry C397A): as the sequence (P29466 whole entry C169A) above, with A169C, C397A counted along it
# Sequence of Caspase-1 (Homo sapiens), P29466 [C270A] (P29466 whole entry C270A): as the sequence (P29466 whole entry C169A) above, with A169C, C270A counted along it
smiles,measurement,setting,value
COc1ccc2c(c1)[C@]1(C=C[C@H](N=C=S)C[C@H]1C(=O)OC(C)(C)C)C(=O)N2C(=O)OCc1ccccc1,Activity,THP-1 [1],inactive
same,Activity,[2],inactive
same,Activity,THP-1 [3],inactive
same,inhibition,HEK293T [4],Active
same,Activity,[5],Non-Toxic
same,Activity,[6],Active
same,inhibition,J774.A1 [7],Active
same,Activity,Caspase-1 (Mus musculus) [8],Active
same,inhibition,HEK293T [9],Active
same,Activity,THP-1 [10],inactive
same,Activity,THP-1 [11],inactive
same,Activity,Caspase-1 (Mus musculus) [12],Tde
same,Activity,J774.A1 [13],Dose-Dependent Effect
same,Activity,[14],Non-Toxic
same,inhibition (active/not active),Caspase-1 (Homo sapiens) [15],Active
same,Activity,J774.A1 [16],Active
same,inhibition,J774.A1 [17],Active
same,inhibition,J774.A1 [18],Active
same,Activity,Caspase-1 (Homo sapiens) [19],31%
same,inhibition,[20],inactive
same,inhibition,HEK293T [21],Active
same,inhibition,HEK293T [22],inactive
same,Tmax,[23],4.98 min
same,inhibition,J774.A1 [24],Active
same,inhibition,[25],Active
same,inhibition,[26],inactive
